Assay results taken from patent US8044071B2, “Method for reducing side effects of CB2 receptor agonist therapy using a combination of a selective CB2 receptor agonist and a selective CB1 receptor antagonist” (Abbott Laboratories, priority 2007, dated 2011).

Tested on: skin incision model of postoperative pain
Assay: Skin incision model of postoperative pain (tactile allodynia, von Frey)
Type: in vivo
Conditions: rat, rimonabant 30 μmol/kg i.p., vehicle 15 min later
From the text: Adult male Sprague-Dawley rats (250-300 g body weight, Charles River Laboratories, Portage, Mich.) were used. Animal handling and experimental protocols were approved by the Institutional Animal Care and Use Committee (IACUC) at Abbott Laboratories. For all surgical procedures, animals were maintained under halothane anesthesia (4% to induce, 2% to maintain), and the incision sites were sterilized using a 10% povidone-iodine solution prior to and after surgeries.
A skin incision model of postoperative pain was produced using the procedures described in Brennan et al., 1996, Pain, 64, 493. All rats were anesthetized with isoflurane delivered via a nose cone. Right hind paw incision was performed following sterilization procedures. The plantar aspect of the […] hind paw was placed through a hole in a sterile plastic drape. A 1-cm longitudinal incision was made through the skin and fascia of the plantar aspect of the hind paw, starting 0.5 cm from the proximal edge of the heel and extending towards the toes, the plantar muscle was elevated and incised longitudinally leaving the muscle origin and insertion points intact. The skin was then closed with two mattress sutures (5-0 nylon). After surgery, animals were then allowed to recover for 2 hours, at which time tactile allodynia was assessed as described below. To evaluate the anti-nociceptive effects, animals were i.p. administered vehicle or test compound 90 minutes following skin incision and tactile allodynia was typically assessed 30 minutes after compound administration.
Tactile allodynia was measured using calibrated von Frey filaments (Stoelting, Wood Dale, Ill.) as described in Chaplan, S. R., F. W. Bach, J. W. Porgrel, J. M. Chung and T. L. Yaksh, 1994, Quantitative assessment of tactile allodynia in the rat paw, J. Neurosci. Methods, 53, 55. Rats were placed into inverted individual plastic cage (20×12.5×20 cm) on top of a suspended wire mesh grid, and acclimated to the test chambers for 20 minutes. The von Frey filaments were applied perpendicularly from underneath the cage through openings in the wire mesh floor directly to an area within 1-3 mm (immediately adjacent) of the incision, and then held in this position for approximately 8 seconds with enough force to cause a slight bend in the filament. Positive responses included an abrupt withdrawal of the hind paw from the stimulus, or flinching behavior immediately following removal of the stimulus. A 50% withdrawal threshold was determined using an up-down procedure as described in Dixon, W. J., 1980, Efficient analysis of experimental observations, Ann. Rev. Pharmacol. Toxicol., 20, 441. The effect on paw withdrawal latency of test compounds compared to vehicle control represents the ability of the test compound to reduce allodynia. An increase in the paw withdrawal latency represents an anti-allodynic effect (i.e., a decrease in pain).
Using the skin incisional model of postoperative pain, the effects of compound A, CB2 agonist (Z)—N-(5-tert-butyl-3-butylthiazol-2(3H)-ylidene)-5-chloro-2-methoxybenzamide, on allodynia was assessed two hours after surgery.
Using the skin incisional model of postoperative pain, the effects of CB2 agonist A were evaluated after the administration of vehicle or the CB1 antagonist rimonabant. This effect was compared with the administration of vehicle after the administration of vehicle or the CB1 antagonist rimonabant. A first dose, consisting of CB1 antagonist rimonabant (30 μmol/kg i.p.) or a vehicle (5% DMSO/PEG), was administered 15 minutes before a second dose, consisting of administration of CB2 agonist A (30 μmol/kg i.p.) or vehicle. Allodynia testing was conducted 30 minutes after administration of the second dose, either CB2 agonist A or vehicle.

SMILES: Cc1c(C(=O)NN2CCCCC2)nn(-c2ccc(Cl)cc2Cl)c1-c1ccc(Cl)cc1 [rimonabant, 5-(4-chlorophenyl)-1-(2,4-dichlorophenyl)-4-methyl-N-(piperidin-1-yl)-1H-pyrazole-3-carboxamide, reference compound]
- tactile allodynia, rimonabant followed by vehicle: did not ameliorate the tactile allodynia
